Biological target: T1, P2X7 receptor (Homo sapiens, UniProt Q99572)
T1 construct: host or cells: SH-SY5Y
T1 sequence (Q99572 1-595): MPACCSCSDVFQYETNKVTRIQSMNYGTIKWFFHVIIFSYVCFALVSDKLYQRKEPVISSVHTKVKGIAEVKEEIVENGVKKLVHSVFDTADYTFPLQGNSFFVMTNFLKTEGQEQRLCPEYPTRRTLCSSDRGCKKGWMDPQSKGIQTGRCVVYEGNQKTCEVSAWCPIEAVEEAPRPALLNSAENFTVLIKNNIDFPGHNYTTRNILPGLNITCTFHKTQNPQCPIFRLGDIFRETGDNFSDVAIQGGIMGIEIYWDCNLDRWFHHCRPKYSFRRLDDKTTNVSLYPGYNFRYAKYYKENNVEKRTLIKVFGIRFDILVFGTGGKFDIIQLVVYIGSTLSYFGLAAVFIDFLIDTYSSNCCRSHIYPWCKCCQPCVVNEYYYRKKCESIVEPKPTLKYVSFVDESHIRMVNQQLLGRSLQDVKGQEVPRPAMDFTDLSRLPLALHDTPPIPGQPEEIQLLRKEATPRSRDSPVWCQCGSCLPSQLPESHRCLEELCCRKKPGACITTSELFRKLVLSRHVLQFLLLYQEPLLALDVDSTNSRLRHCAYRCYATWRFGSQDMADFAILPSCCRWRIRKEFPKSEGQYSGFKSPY
Assay: High throughput P2X7 calcium mobilization assay (Example 4A)
Assay type: cell-based
Settings: SH-SY5Y cells; 50% decrease in fluorescence response of cells exposed to 80 μM BzATP; Table I
How it was run: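 Calcium mobilization read by FLIPR as peak fluorescence over 2 min after adding BzATP to a final 80 μM (about EC50). Beforehand, Fluo-4 AM-loaded SH-SY5Y cells sat 1 h at room temperature with compound at 1–2500 nM in pH 7.4 sucrose/HEPES buffer; signal minus no-agonist wells.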

Row | SMILES | IC50
1 | CC(CNC(=O)c1cn(-c2ncccn2)nc1C(F)(F)F)c1ccc(Cl)cc1 (stereo not drawn) [Compound 202, N-[2-(4-chlorophenyl)propyl]-1-pyrimidin-2-yl-3-(trifluoromethyl)-1H-pyrazole-4-carboxamide] | ≤ 2000 nM
2 | CC(C)CC(CNC(=O)c1cn(-c2ncccn2)nc1C(F)(F)F)c1cccnc1 (stereo not drawn) [Compound 203, N-(4-methyl-2-pyridin-3-ylpentyl)-1-pyrimidin-2-yl-3-(trifluoromethyl)-1H-pyrazole-4-carboxamide] | ≤ 2000 nM
3 | O=C(NCC1(c2ccc(Cl)cc2)CCC1)c1cn(-c2ncccn2)nc1C(F)(F)F [Compound 204, N-{[1-(4-chlorophenyl)cyclobutyl]methyl}-1-pyrimidin-2-yl-3-(trifluoromethyl)-1H-pyrazole-4-carboxamide] | ≤ 2000 nM
4 | O=C(NCC(O)C12CC3CC(CC(C3)C1)C2)c1cn(-c2ncccn2)nc1C(F)(F)F (stereo not drawn) [Compound 205, N-(2-adamantan-1-yl-2-hydroxyethyl)-1-pyrimidin-2-yl-3-(trifluoromethyl)-1H-pyrazole-4-carboxamide] | ≤ 2000 nM
5 | CC(C)CCNC(=O)c1cn(-c2ncccn2)nc1C(F)(F)F [Compound 206, N-(3-methylbutyl)-1-pyrimidin-2-yl-3-(trifluoromethyl)-1H-pyrazole-4-carboxamide] | ≤ 2000 nM
6 | CCC(CNC(=O)c1cn(-c2ncccn2)nc1C(F)(F)F)c1ccccc1 (stereo not drawn) [Compound 207, N-(2-phenylbutyl)-1-pyrimidin-2-yl-3-(trifluoromethyl)-1H-pyrazole-4-carboxamide] | ≤ 2000 nM
7 | CCCCCCCC(CNC(=O)c1cn(-c2ncccn2)nc1C(F)(F)F)c1ccccc1 (stereo not drawn) [Compound 208, N-(2-phenylnonyl)-1-pyrimidin-2-yl-3-(trifluoromethyl)-1H-pyrazole-4-carboxamide] | ≤ 2000 nM
8 | CC(C)CC(CNC(=O)c1cn(-c2ncccn2)nc1C(F)(F)F)c1ccccc1 (stereo not drawn) [Compound 209, N-(4-methyl-2-phenylpentyl)-1-pyrimidin-2-yl-3-(trifluoromethyl)-1H-pyrazole-4-carboxamide] | ≤ 2000 nM
9 | O=C(NCC(CC1CCCC1)c1ccccc1)c1cn(-c2ncccn2)nc1C(F)(F)F (stereo not drawn) [Compound 210, N-(3-cyclopentyl-2-phenylpropyl)-1-pyrimidin-2-yl-3-(trifluoromethyl)-1H-pyrazole-4-carboxamide] | ≤ 2000 nM
10 | O=C(NCC(c1ccccc1)C1CCCCC1)c1cn(-c2ncccn2)nc1C(F)(F)F (stereo not drawn) [Compound 211, N-(2-cyclohexyl-2-phenylethyl)-1-pyrimidin-2-yl-3-(trifluoromethyl)-1H-pyrazole-4-carboxamide] | ≤ 2000 nM
11 | CCCCCCC(CNC(=O)c1cn(-c2ncccn2)nc1C(F)(F)F)c1ccccc1 (stereo not drawn) [Compound 212, N-(2-phenyloctyl)-1-pyrimidin-2-yl-3-(trifluoromethyl)-1H-pyrazole-4-carboxamide] | ≤ 2000 nM
12 | O=C(NCC(CC1CCCCC1)c1ccccc1)c1cn(-c2ncccn2)nc1C(F)(F)F (stereo not drawn) [Compound 213, N-(3-cyclohexyl-2-phenypropyl)-1-pyrimidin-2-yl-3-(trifluoromethyl)-1H-pyrazole-4-carboxamide] | ≤ 2000 nM
13 | O=C(NCC(CCC1CCCCC1)c1ccccc1)c1cn(-c2ncccn2)nc1C(F)(F)F (stereo not drawn) [Compound 214, N-(4-cyclohexyl-2-phenylbutyl)-1-pyrimidin-2-yl-3-(trifluoromethyl)-1H-pyrazole-4-carboxamide] | ≤ 2000 nM
14 | CC(CCNC(=O)c1cn(-c2ncccn2)nc1C(F)(F)F)c1ccccc1 (stereo not drawn) [Compound 215, N-(3-phenylbutyl)-1-pyrimidin-2-yl-3-(trifluoromethyl)-1H-pyrazole-4-carboxamide] | ≤ 2000 nM
15 | CC1CC(NC(=O)c2cn(-c3ncccn3)nc2C(F)(F)F)CC(C)(C)C1 (stereo not drawn) [Compound 216, 1-pyrimidin-2-yl-3-(trifluoromethyl)-N-(3,3,5-trimethylcyclohexyl)-1H-pyrazole-4-carboxamide] | ≤ 2000 nM

From patent US9133204B2, “5-membered heterocyclic amides and related compounds” (H. Lundbeck A/S, priority 2007, dated 2015)
